Experiment [1] deals with T1, RNA-binding protein pos-1 (Caenorhabditis elegans, UniProt G5EF15).
T1 sequence (G5EF15 whole entry): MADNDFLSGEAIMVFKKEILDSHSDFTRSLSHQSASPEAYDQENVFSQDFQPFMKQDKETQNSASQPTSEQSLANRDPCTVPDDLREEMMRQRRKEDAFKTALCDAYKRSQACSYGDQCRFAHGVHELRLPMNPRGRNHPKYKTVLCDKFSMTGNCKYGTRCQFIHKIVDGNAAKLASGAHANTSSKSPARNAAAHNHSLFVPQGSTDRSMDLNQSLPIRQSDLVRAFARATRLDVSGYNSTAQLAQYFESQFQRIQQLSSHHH
In words: inhibitors of POS-1/mex-3 RNA binding, dose response, biochemical, fluorescence polarization (AID 1964).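 Note: purified POS-1 fused to maltose binding protein made in E. coli; potency of compounds blocking POS-1 binding to fluorescent RNA.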

Experiment [2] concerns the target T2, Zinc finger protein mex-5 (Caenorhabditis elegans, UniProt Q9XUB2).
T2 sequence (Q9XUB2 whole entry): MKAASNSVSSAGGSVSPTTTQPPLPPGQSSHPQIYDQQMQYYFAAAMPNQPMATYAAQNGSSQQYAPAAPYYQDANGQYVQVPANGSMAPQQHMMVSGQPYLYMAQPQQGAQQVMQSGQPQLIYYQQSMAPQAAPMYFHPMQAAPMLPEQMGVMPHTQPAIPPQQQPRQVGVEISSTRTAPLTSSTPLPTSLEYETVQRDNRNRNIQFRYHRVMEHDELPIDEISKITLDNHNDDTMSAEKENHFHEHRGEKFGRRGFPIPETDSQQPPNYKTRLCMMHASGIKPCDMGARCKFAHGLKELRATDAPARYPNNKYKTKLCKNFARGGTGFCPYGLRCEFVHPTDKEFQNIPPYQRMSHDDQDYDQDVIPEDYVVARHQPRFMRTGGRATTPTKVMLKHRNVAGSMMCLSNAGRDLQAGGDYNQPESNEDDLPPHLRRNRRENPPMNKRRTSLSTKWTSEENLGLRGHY
The experiment in a line: MEX-5/TCR-2 RNA interaction inhibitors, dose response, biochemical, C. elegans, fluorescence polarization (AID 1960). A general note: In fluorescence polarisation assays a small probe gives low polarisation when free and higher when bound to something large.

Experiment [3] is described as follows: Shn3 3'UTR reporter inhibitors, dose response, cell-based, Clone20 osteoblasts, firefly luciferase, cherry-picked (AID 624132).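 Note: firefly luciferase luminescence from reporter carrying the Shn3 3'UTR in osteoblasts.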 It counts as functional.
The target of experiment [4] is T3, Heat shock factor protein 1 (Mus musculus, UniProt P38532).
T3 sequence (P38532 whole entry): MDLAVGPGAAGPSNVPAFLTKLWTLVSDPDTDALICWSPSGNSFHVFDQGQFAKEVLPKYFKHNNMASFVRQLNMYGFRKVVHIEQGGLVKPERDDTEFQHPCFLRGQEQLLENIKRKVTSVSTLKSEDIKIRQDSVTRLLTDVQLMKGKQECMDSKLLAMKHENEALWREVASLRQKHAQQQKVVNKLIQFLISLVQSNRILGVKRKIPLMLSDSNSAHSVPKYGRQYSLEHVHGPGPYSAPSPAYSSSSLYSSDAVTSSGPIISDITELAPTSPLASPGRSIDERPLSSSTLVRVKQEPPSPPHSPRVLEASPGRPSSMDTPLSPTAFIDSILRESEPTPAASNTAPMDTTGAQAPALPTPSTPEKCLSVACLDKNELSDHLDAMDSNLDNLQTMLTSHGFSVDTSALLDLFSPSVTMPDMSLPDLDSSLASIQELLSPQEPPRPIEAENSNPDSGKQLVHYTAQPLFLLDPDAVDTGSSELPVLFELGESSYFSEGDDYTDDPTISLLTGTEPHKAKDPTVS
The experiment in a line: inhibition of MG132-induced HSE-luciferase signal, confirmation, cell-based, NIH3T3, luminescence, dose retest (AID 2382).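 Note: NIH3T3 fibroblasts with HSF1-driven luciferase reporter stressed by proteasome inhibitor MG132; luminescence from HSF1-driven luciferase expression after 8 hours of MG132 stress.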 It counts as functional.

The target in experiment [5] is Genome polyprotein (dengue virus type 2, UniProt P29990). The experiment in a line: Dengue-2 NS5 methyltransferase inhibitors, primary screen, biochemical, confirmation dose response (AID 588689). It counts as functional.
Sequence of Genome polyprotein (P29990 2492-3391 limits assumed): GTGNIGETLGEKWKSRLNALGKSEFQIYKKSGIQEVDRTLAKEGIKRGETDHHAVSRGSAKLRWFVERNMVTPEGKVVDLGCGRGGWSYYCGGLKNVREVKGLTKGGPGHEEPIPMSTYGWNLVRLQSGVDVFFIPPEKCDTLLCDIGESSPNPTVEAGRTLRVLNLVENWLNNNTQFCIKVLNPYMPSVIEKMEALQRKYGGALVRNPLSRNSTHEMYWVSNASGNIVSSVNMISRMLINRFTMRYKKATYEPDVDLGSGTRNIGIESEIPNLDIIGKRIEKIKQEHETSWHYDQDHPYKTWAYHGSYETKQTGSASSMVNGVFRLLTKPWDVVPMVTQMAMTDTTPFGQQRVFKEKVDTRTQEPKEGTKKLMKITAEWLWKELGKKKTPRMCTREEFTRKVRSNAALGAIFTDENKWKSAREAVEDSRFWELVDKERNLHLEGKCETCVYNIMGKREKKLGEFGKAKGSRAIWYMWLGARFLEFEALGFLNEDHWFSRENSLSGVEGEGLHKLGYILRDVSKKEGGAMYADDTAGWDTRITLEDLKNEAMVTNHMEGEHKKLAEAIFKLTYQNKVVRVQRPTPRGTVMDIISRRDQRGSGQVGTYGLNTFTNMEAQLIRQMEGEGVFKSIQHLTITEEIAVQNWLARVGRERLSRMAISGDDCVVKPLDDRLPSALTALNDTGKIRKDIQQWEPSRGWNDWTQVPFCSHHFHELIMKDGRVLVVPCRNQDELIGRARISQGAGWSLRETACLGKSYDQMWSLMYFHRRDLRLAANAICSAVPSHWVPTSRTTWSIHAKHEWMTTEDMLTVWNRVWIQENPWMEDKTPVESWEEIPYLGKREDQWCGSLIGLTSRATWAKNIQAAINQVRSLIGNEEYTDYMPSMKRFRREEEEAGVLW
For experiment [6], the target named is T4, Corticotropin-releasing factor receptor 2/Corticotropin-releasing factor-binding protein (Homo sapiens, UniProt P24387+Q13324).
T4 sequence (Q13324 whole entry): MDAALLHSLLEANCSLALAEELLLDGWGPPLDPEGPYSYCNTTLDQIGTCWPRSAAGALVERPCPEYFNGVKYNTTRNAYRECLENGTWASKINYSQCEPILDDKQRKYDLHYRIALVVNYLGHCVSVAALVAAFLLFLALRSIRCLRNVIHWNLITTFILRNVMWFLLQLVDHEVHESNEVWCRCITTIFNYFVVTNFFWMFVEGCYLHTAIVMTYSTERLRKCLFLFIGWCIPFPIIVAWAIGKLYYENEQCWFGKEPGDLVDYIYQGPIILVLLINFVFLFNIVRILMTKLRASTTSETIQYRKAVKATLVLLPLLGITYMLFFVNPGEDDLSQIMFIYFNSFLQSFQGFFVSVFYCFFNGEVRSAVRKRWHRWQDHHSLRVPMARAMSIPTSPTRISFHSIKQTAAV
T4 sequence (P24387 whole entry): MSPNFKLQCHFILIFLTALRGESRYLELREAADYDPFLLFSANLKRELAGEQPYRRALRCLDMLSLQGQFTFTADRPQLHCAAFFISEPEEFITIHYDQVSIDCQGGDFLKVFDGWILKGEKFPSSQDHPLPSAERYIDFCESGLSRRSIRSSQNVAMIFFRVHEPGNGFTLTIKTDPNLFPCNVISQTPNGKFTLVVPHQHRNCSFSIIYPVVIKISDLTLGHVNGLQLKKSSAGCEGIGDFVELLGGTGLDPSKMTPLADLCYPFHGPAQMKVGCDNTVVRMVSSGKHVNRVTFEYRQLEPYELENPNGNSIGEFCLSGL
In words: activators of CRF receptor 2 with binding protein – uHTS hits, confirmation (AID 602473). It counts as functional. The note with it: read-out: EC50_Mean.

The nature of experiment [7]: HEp-2 cell cytotoxicity, dose response, cytotoxicity control for RSV inhibitor project, HTS (AID 2410). The experiment is classed as functional. The note with it: human respiratory syncytial virus.
Experiment [8] in a line: Luminescence Cell-Based Dose Confirmation HTS to Identify Activators of 5'UTR Stem-Loop Driven Alpha-Synuclein mRNA Translation in H4 Neuroglioblastoma Cells. [Related pubchem assays: 1829 (Project Summary), 1814 (Primary HTS)]. It counts as functional.
Experiment [9] in a line: Luminescence Cell-Based Dose Response HTS to Identify Activators of Luciferase Translation or Activity in H4 […] Cells. [Related pubchem assays: 1829 (Project Summary), 1814 (Primary HTS)]. It counts as functional.
For experiment [10], the system named is H4. In words: Luminescence Cell-Based Dose Response HTS to Identify Activators of 5'UTR Stem-Loop Driven Prion Protein mRNA Translation in H4 Neuroglioblastoma Cells. [Related pubchem assays: 1829 (Project Summary), 1814 (Primary HTS)]. It counts as functional. The note with it: Homo sapiens.

Calls of active or inactive are those of the source. Cut-off read from the data, not from the text of the source, for most assays here: actives have a measured EC50 and inactives only a lower limit.

Here are results for 24 compounds from ChEMBL document CHEMBL1201862, “PubChem BioAssay data set” (2004).

A word on the AC50: it is the concentration at which the activity in the assay is half-maximal. One may read the IC50 as the concentration needed to halve the response being measured. Broadly, the CC50 is the concentration giving 50% cytotoxicity.

Consider `O=C(N1CCOCC1)N1CCC(n2nnc3cc(F)ccc32)CC1`, for which the values for the EC50 in experiment [1] and in experiment [2] were 39.2 µM (active) and 46.7 µM (inconclusive), respectively. Take `Sc1nnc(COc2cccc3ccccc23)n1Cc1ccccc1`: the AC50 in [3] is 48 µM (active). For `CC1=NN(c2ccccc2)C(=O)C1N=Nc1ccc(S(N)(=O)=O)cc1` (stereo not given), in experiment [4], the EC50 is reported as > 195 µM (not active). On to `O=C(Nc1cc(S(=O)(=O)N2CCOCC2)ccc1O)c1ccc2c(c1)S(=O)(=O)c1ccccc1C2=O`, for which the IC50 in [5] was 49.6 µM (active). For `Cc1c(C(=O)Nc2ccc(F)cc2)sc2ncn(CC(=O)N3CCCCC3)c(=O)c12`, the EC50 in experiment [4] was > 195 µM (not active).

For `COc1cc(SC)ccc1C(=O)NCC1CCCO1` (stereo not given), the EC50 in experiment [4] is recorded as > 195 µM (not active). The same measure, in the same setting: the result for `Cc1ccc(/C=N/NC(=O)c2nnn(-c3nonc3N)c2CN(C)C2CCCCC2)cc1` reads > 195 µM (not active). In the case of `COc1ccc(Nc2nc3ccccc3nc2NS(=O)(=O)c2cccs2)cc1`, the values for the EC50 in experiment [1] and in experiment [2] were > 300 µM (inconclusive) and 34.8 µM (active), respectively. As to `COc1ccc(/C=C2/C(=O)NC(=O)N(c3ccc(C)c(C)c3)C2=O)cc1CN1C(=O)c2ccccc2C1=O`, in experiment [5], the IC50 is 99.5 µM (active). In the case of `CCOc1ccc(/C=N/NC(=O)c2ccc(Cn3cc([N+](=O)[O-])cn3)o2)cc1`, the EC50 in [4] was > 195 µM (not active). With `Cc1cc(-n2c(C)cc(C(=O)CSc3nc4ccccc4c(=O)n3Cc3ccco3)c2C)no1`, the EC50 in [6] was > 53 µM (inactive). As for `O=C(CSc1nnc(COc2ccc3c(c2)CCCC3)o1)Nc1ccc(F)cc1`, in experiment [4], the EC50 is on record as > 195 µM (not active).

`COc1ccc(Cl)cc1NC(=O)CSc1nc2ccsc2c(=O)n1CC1CCC(C(=O)O)CC1` (stereo not given): the CC50 in experiment [7] is > 50 µM (active). In addition, in experiment [4], the EC50 is recorded as > 195 µM (not active). For the compound `Cc1cc(N2CCCCC2)nc(N)n1`, the EC50 in [6] was 6.28 µM (active). As for `CC1(C)CC(=O)C2=C(C1)N(Cc1ccccc1)C(=O)C2(NC(=O)C(C)(C)C)C(F)(F)F` (stereo not given), in experiment [4], the EC50 is > 195 µM (not active).

Consider `CCN(CC)c1ccc(C=C2C(=O)OC(C)(C(C)(C)C)OC2=O)cc1` (stereo not given), for which the EC50 in experiment [1] and in experiment [2] was > 300 µM (inconclusive) each time. For the compound `O=C1C(Cl)=C(N2CCCC2)C(=O)N1c1ccccc1F`, in experiment [5], the 50% inhibitory concentration (IC50) is 84.4 µM (active).

For the compound `Cc1ccc(NCC(=O)N/N=C/c2ccc(C(=O)O)cc2)cc1`, the EC50 in experiment [1] and in experiment [2] was > 300 µM (not active) each time. Regarding `COc1cc2c(cc1/C=C1/NC(=O)N(c3ccccc3)C1=O)OCO2`, the EC50 in experiment [1] and in experiment [2] was > 300 µM (not active) in each case.

As for `CCOC(=O)c1ccc(NC(=O)C2C3C=CC(O3)C2C(=O)O)cc1` (stereo not given), the EC50 in experiment [8] was > 60 µM (not active); in experiment [9] it was > 120 µM (not active); in [10] it was > 120 µM (not active); in [4] it was > 195 µM (not active). Regarding `CCc1cc(=O)oc2cc(C)cc(OC(C)C(=O)O)c12` (stereo not given), the EC50 in experiment [1] and in experiment [2] was > 300 µM (not active) in each case. For the compound `COc1ccc(C(C2C(=O)CC(C)(C)CC2=O)C2C(=O)CC(C)(C)CC2=O)cc1`, the IC50 in [5] is 30.4 µM (active). Turning to `CCCCC1=CC2=C(c3ccco3)C(=O)C(C)(OC(=O)c3ccc(OC)cc3)C(=O)C2=CN1C1CC1` (stereo not given), the EC50 in [1] and in experiment [2] was > 300 µM (not active) throughout. For the compound `O=C(O)CCc1ccc(-c2ccc(Br)cc2)n1-c1ccc(O)cc1`, in [5], the IC50 is > 100 µM (active).
